Drawing on patent US20230087342A1, “AZEPANE DERIVATIVE” (Nippon Chemiphar Co., Ltd., priority 2019, published 2023), this text covers EC50 for 23 molecules.

This assay deals with T1, human κ opioid receptors (Homo sapiens, UniProt P41145).
T1 construct: host or cells: CHO cells
The assay is described as follows: Opioid receptor function test (Lance Ultra cAMP kit, agonist activity). It is filed as cell-based. The following applies: CHO cells expressing human κ opioid receptors, 10 μM forskolin, 30 minutes. The protocol: Opioid Receptor Function Test
The function activity of the compound of the present invention on κ opioid receptors was examined.
Method: Using a Lance Ultra cAMP kit (Perkin Elmer), the examination was performed according to a predetermined method. In evaluation of agonist activity, CHO cells expressing human κ opioid receptors (Catalog No. CT6606, accession No. NM_000912) and a test compound were reacted in an assay buffer (1×HSS, 5 mM HEPES, pH 7.4, 0.5 mM IBMX (isobutylmethyixanthine), 0.1% SA) in the presence of 10 μM forskolin for 30 minutes. Subsequently, a cAMP detection reagent in the kit was added. One hour later, time-resolved fluorescence measurement was performed using an EnVision plate reader (Perkin Elmer). The evaluation of the test compound was performed in a concentration range of 10^−14 to 10^−7 M for the κ opioid receptor function test.

Each structure is given as a SMILES string. pEC50: −log10 of the molar value.

T1 sequence (P41145 whole entry): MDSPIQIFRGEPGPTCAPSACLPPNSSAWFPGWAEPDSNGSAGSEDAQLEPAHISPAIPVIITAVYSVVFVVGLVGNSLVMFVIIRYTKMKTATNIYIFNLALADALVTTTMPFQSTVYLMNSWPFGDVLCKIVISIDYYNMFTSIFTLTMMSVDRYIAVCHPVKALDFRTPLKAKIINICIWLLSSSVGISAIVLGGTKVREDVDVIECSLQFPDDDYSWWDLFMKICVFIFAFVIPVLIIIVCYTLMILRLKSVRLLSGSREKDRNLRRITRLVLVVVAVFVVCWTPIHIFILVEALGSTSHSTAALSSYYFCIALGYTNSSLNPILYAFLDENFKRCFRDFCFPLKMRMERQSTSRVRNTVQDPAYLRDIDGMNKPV

What is called pEC50 is the negative decadic logarithm of the EC50, by convention in mol/L. `O=C(Cc1cn2ccccc2n1)N1CC[C@]23CCN(CC4CC4)[C@H](Cc4ccc(O)cc42)[C@]3(O)CC1` [Example 115, 1-((5aS,6R,11bR)-14-(cyclopropylmethyl)-5a,10-dihydroxy-1,2,5,5a,6,7-hexahydro-6,11b-(epiminoethano)naphtho[1,2-d]azepin-3(4H)-yl)-2-(imidazo[1,2-a]pyridin-2-yl)ethan-1-one] gave a negative-log EC50 (pEC50) of 9.82. Next, `Cc1cnn(CCN2CC[C@]34CCN(CC5CC5)[C@H](Cc5ccc(O[C@@H]6O[C@H](C(=O)O)[C@@H](O)C(O)[C@H]6O)cc53)[C@]4(O)CC2)c1` (stereo partly drawn) [Example 246, (2S,3S,5R,6S)-6-(((5aS,6R,11bS)-14-(cyclopropylmethyl)-5a-hydroxy-3-(2-(4-methyl-1H-pyrazol-1-yl)ethyl)-1,2,3,4,5,5a,6,7-octahydro-6,11b-(epiminoethano)naphtho[1,2-d]azepin-10-yl)oxy)-3,4,5-trihydroxytetrahydro-2H-pyran-2-carboxylic acid]: 8.59.

For the molecule `CCc1cnn(CCN2CC[C@]34CCN(CC5CC5)[C@H](Cc5ccc(O)cc53)[C@]4(O)CC2)c1` [Example 193, (5aS,6R,11bS)-14-(cyclopropylmethyl)-3-(2-(4-ethyl-1H-pyrazol-1-yl)ethyl)-2,3,4,5,6,7-hexahydro-6,11b-(epiminoethano)naphtho[1,2-d]azepine-5a,10(1H)-diol], the negative logarithm of the EC50 (pEC50) was 10.46.

The molecule `O=C(Cn1nccc1O)N1CC[C@]23CCN(CC4CC4)[C@H](Cc4ccc(O)cc42)[C@]3(O)CC1` [Example 214, 1-((5aS,6R,11bR)-14-(cyclopropylmethyl)-5a,10-dihydroxy-1,2,5,5a,6,7-hexahydro-6,11b-(epiminoethano)naphtho[1,2-d]azepin-3(4H)-yl)-2-(5-hydroxy-1H-pyrazol-1-yl)ethan-1-one] gave a negative-log EC50 (pEC50) of 9.89. Consider `O=C(Cc1cscn1)N1CC[C@]23CCN(CC4CC4)[C@H](Cc4ccc(O)cc42)[C@]3(O)CC1` [Example 33, 1-((5aS,6R,11bR)-14-(cyclopropylmethyl)-5a,10-dihydroxy-1,2,5,5a,6,7-hexahydro-6,11b-(epiminoethano)naphtho[1,2-d]azepin-3(4H)-yl)-2-(thiazol-4-yl)ethan-1-one], for which the negative-log EC50 (pEC50) is 9.04. Next, `Cc1cnn(CC(=O)N2CC[C@]34CCN(CC5CC5)[C@H](Cc5cc(C)c(O)cc53)[C@]4(O)CC2)c1` [Example 328, 1-((5aS,6R,11bR)-14-(cyclopropylmethyl)-5a,10-dihydroxy-9-methyl-1,2,5,5a,6,7-hexahydro-6,11b-(epiminoethano)naphtho[1,2-d]azepin-3(4H)-yl)-2-(4-methyl-1H-pyrazol-1-yl)ethan-1-one]: 9.48; `CN(C)CCC(=O)N1CC[C@]23CCN(CC4CC4)[C@H](Cc4ccc(O)cc42)[C@]3(O)CC1` [Example 186, 1-((5aS,6R,11bR)-14-(cyclopropylmethyl)-5a,10-dihydroxy-1,2,5,5a,6,7-hexahydro-6,11b-(epiminoethano)naphtho[1,2-d]azepin-3(4H)-yl)-3-(dimethylamino)propan-1-one]: 9.00; `Cc1cnn(CCN2CC[C@]34CCN(CC5CC5)[C@H](Cc5ccc(O)cc53)[C@]4(O)CC2C)c1` (stereo partly drawn) [Example 274, (5aS,6R,11bS)-14-(cyclopropylmethyl)-4-methyl-3-(2-(4-methyl-1H-pyrazol-1-yl)ethyl)-2,3,4,5,6,7-hexahydro-6,11b-(epiminoethano)naphtho[1,2-d]azepine-5a,10(1H)-diol]: 10.15. Next, `CC(C)(C)c1cnn(CCN2CC[C@]34CCN(CC5CC5)[C@H](Cc5ccc(O)cc53)[C@]4(O)CC2)c1` [Example 149, (5aS,6R,11bS)-3-(2-(4-(tert-butyl)-1H-pyrazol-1-yl)ethyl)-14-(cyclopropylmethyl)-2,3,4,5,6,7-hexahydro-6,11b-(epiminoethano)naphtho[1,2-d]azepine-5a,10(1H)-diol]: 10.64; `Cc1cnn(C[C@H](CO)N2CC[C@]34CCN(CC5CC5)[C@H](Cc5ccc(O)cc53)[C@]4(O)CC2)c1` [Example 232, (5aS,6R,11bS)-14-(cyclopropylmethyl)-3-((R)-1-hydroxy-3-(4-methyl-1H-pyrazol-1-yl)propan-2-yl)-2,3,4,5,6,7-hexahydro-6,11b-(epiminoethano)naphtho[1,2-d]azepine-5a,10(1H)-diol]: 9.77; `Oc1ccc2c(c1)[C@@]13CCN(CCc4nc5ccccc5s4)CC[C@@]1(O)[C@@H](C2)N(CC1CC1)CC3` [Example 128, (5aS,6R,11bS)-3-(2-(benzo[d]thiazol-2-yl)ethyl)-14-(cyclopropylmethyl)-2,3,4,5,6,7-hexahydro-6,11b-(epiminoethano)naphtho[1,2-d]azepine-5a,10(1H)-diol]: 10.00.

The molecule `Cn1cnc(CCN2CC[C@]34CCN(CC5CC5)[C@H](Cc5ccc(O)cc53)[C@]4(O)CC2)c1` [Example 41, (5aS,6R,11bS)-14-(cyclopropylmethyl)-3-(2-(1-methyl-1H-imidazol-4-yl)ethyl)-2,3,4,5,6,7-hexahydro-6,11b-(epiminoethano)naphtho[1,2-d]azepine-5a,10(1H)-diol] showed a negative logarithm of the EC50 (pEC50) of 9.89. Next, `Cc1cnn(C[C@@H](CO)N2CC[C@]34CCN(CC5CC5)[C@H](Cc5ccc(O)cc53)[C@]4(O)CC2)c1` [Example 234, (5aS,6R,11bS)-14-(cyclopropylmethyl)-3-((S)-1-hydroxy-3-(4-methyl-1H-pyrazol-1-yl)propan-2-yl)-2,3,4,5,6,7-hexahydro-6,11b-(epiminoethano)naphtho[1,2-d]azepine-5a,10(1H)-diol]: 10.06; `Oc1ccc2c(c1)[C@@]13CCN(CCN4CCCCC4)CC[C@@]1(O)[C@@H](C2)N(CC1CC1)CC3` [Example 130, (5aS,6R,11bS)-14-(cyclopropylmethyl)-3-(2-(piperidin-1-yl)ethyl)-2,3,4,5,6,7-hexahydro-6,11b-(epiminoethano)naphtho[1,2-d]azepine-5a,10(1H)-diol]: 9.44; `Oc1ccc2c(c1)[C@@]13CCN(CCc4ccccn4)CC[C@@]1(O)[C@@H](C2)N(CC1CCC1)CC3` [Example 162, (5aS,6R,11bS)-14-(cyclobutylmethyl)-3-(2-(pyridin-2-yl)ethyl)-2,3,4,5,6,7-hexahydro-6,11b-(epiminoethano)naphtho[1,2-d]azepine-5a,10(1H)-diol]: 9.41. On to `Cc1cc(CCN2CC[C@]34CCN(CC5CC5)[C@H](Cc5ccc(O)cc53)[C@]4(O)CC2)no1` [Example 188, (5aS,6R,11bS)-14-(cyclopropylmethyl)-3-(2-(5-methylisoxazol-3-yl)ethyl)-2,3,4,5,6,7-hexahydro-6,11b-(epiminoethano)naphtho[1,2-d]azepine-5a,10(1H)-diol], for which the pEC50 is 9.16. Next, `Cc1cc(CC(=O)N2CC[C@]34CCN(CC5CC5)[C@H](Cc5ccc(O)cc53)[C@]4(O)CC2)no1` [Example 185, 1-((5aS,6R,11bR)-14-(cyclopropylmethyl)-5a,10-dihydroxy-1,2,5,5a,6,7-hexahydro-6,11b-(epiminoethano)naphtho[1,2-d]azepin-3(4H)-yl)-2-(5-methylisoxazol-3-yl)ethan-1-one]: 9.41; `O=C(CN1CCC(F)(F)C1)N1CC[C@]23CCN(CC4CC4)[C@H](Cc4ccc(O)cc42)[C@]3(O)CC1` [Example 181, 1-((5aS,6R,11bR)-14-(cyclopropylmethyl)-5a,10-dihydroxy-1,2,5,5a,6,7-hexahydro-6,11b-(epiminoethano)naphtho[1,2-d]azepin-3(4H)-yl)-2-(3,3-difluoropyrrolidin-1-yl)ethan-1-one]: 9.49. Next, `O=C(Cc1cc2ccccn2n1)N1CC[C@]23CCN(CC4CC4)[C@H](Cc4ccc(O)cc42)[C@]3(O)CC1` [Example 117, 1-((5aS,6R,11bR)-14-(cyclopropylmethyl)-5a,10-dihydroxy-1,2,5,5a,6,7-hexahydro-6,11b-(epiminoethano)naphtho[1,2-d]azepin-3(4H)-yl)-2-(pyrazolo[1,5-a]pyridin-2-yl)ethan-1-one]: 9.40. `Cc1ccn(CCN2CC[C@]34CCN(CC5CC5)[C@H](Cc5ccc(O)cc53)[C@]4(O)CC2)n1` [Example 47, (5aS,6R,11bS)-14-(cyclopropylmethyl)-3-(2-(3-methyl-1H-pyrazol-1-yl)ethyl)-2,3,4,5,6,7-hexahydro-6,11b-(epiminoethano)naphtho[1,2-d]azepine-5a,10(1H)-diol] had a pEC50 of 9.64. As to `Cc1cn(CCN2CC[C@]34CCN(CC5CC5)[C@H](Cc5ccc(O)cc53)[C@]4(O)CC2)nc1C(F)(F)F` [Example 164, (5aS,6R,11bS)-14-(cyclopropylmethyl)-3-(2-(4-methyl-3-(trifluoromethyl)-1H-pyrazol-1-yl)ethyl)-2,3,4,5,6,7-hexahydro-6,11b-(epiminoethano)naphtho[1,2-d]azepine-5a,10(1H)-diol], the negative-log EC50 (pEC50) was 9.59. Next, `Cc1cc(CC(=O)N2CC[C@]34CCN(CC5CC5)[C@H](Cc5cc(C)c(O)cc53)[C@]4(O)CC2)ns1` [Example 323, 1-((5aS,6R,11bR)-14-(cyclopropylmethyl)-5a,10-dihydroxy-9-methyl-1,2,5,5a,6,7-hexahydro-6,11b-(epiminoethano)naphtho[1,2-d]azepin-3(4H)-yl)-2-(5-methylisothiazol-3-yl)ethan-1-one]: 9.74; `Oc1ccc2c(c1)[C@@]13CCN(CCn4cc(C(F)(F)F)cn4)CC[C@@]1(O)[C@@H](C2)N(CC1CC1)CC3` [Example 144, (5aS,6R,11bS)-14-(cyclopropylmethyl)-3-(2-(4-(trifluoromethyl)-1H-pyrazol-1-yl)ethyl)-2,3,4,5,6,7-hexahydro-6,11b-(epiminoethano)naphtho[1,2-d]azepine-5a,10(1H)-diol]: 10.72.
